# Data taken from patent US9056851B2, “Thiolactone antibiotics” (priority 2011, dated 2015).
# Biological target: C171Q KasA acyl-enzyme mimic (Mycobacterium tuberculosis, UniProt P9WQD9, C171Q)
# Assay type: binding, M. tuberculosis
Structure (SMILES),Slow Onset,Slow or Rapid onset of binding to C171QKasA (words in Ki* column)
"C=C/C(C)=C/[C@@]1(C)SC(=O)C=C1O [TLM2, 5R-(+)-3-Demethylthiolactomycin]",No,Rapid
"C=C/C(C)=C/[C@@]1(C)SC(=O)C(CC)=C1O [TLM3, 5R-(+)-3-Ethylthiolactomycin]",Yes,"Slow,"
"C=C/C(C)=C/[C@@]1(C)SC(=O)C(CCC)=C1O [TLM4, 5R-(+)-3-Propylthiolactomycin]",Yes,"Slow,"
C=C/C(C)=C/[C@@]1(C)SC(=O)C(CCc2ccc(C)cc2)=C1O [TLM5],No,Rapid
C=C/C(C)=C/[C@@]1(C)SC(=O)C(CCCCc2ccc(F)cc2)=C1O [TLM6],No,Rapid
C=C/C(C)=C/[C@@]1(C)SC(=O)C(CCCCc2ccc(Cl)cc2)=C1O [TLM7],No,Rapid
C=C/C(C)=C/[C@@]1(C)SC(=O)C(CCCCc2ccc(Br)cc2)=C1O [TLM8],No,Rapid
C=C/C(C)=C/[C@@]1(C)SC(=O)C(CCCCc2ccc(-c3ccccc3)cc2)=C1O [TLM9],No,Rapid
C=C/C(C)=C/[C@@]1(C)SC(=O)C(CCCN=[N+]=[N-])=C1O [TLM10],Yes,Slow Onset
C=C/C(C)=C/[C@@]1(C)SC(=O)C(CCc2ccc(Cl)cc2)=C1O [TLM31],No,–
C=C/C(C)=C/[C@@]1(C)SC(=O)C(CCCCN=[N+]=[N-])=C1O [TLM32],Yes,–
C=C/C(C)=C/[C@@]1(C)SC(=O)C(CCCCn2cc(CNC(=O)[C@H](O)C(C)(C)CO)nn2)=C1O [TLM33],No,–
C=C/C(C)=C/[C@@]1(C)SC(=O)C(CCCCn2cc(CNC(=O)c3ccc(NS(=O)(=O)c4ccc(F)cc4)cc3)nn2)=C1O [TLM34],No,–
C=C/C(C)=C/[C@@]1(C)SC(=O)C(C(C)=O)=C1O [TLM35],Yes,–
C=C/C(C)=C/[C@@]1(C)SC(=O)C(C(=O)C(F)(F)F)=C1O [TLM36],Yes,–
C=C/C(C)=C/[C@@]1(C)SC(=O)C(C(=O)OC)=C1O [TLM37],No,–
C=C/C(C)=C/[C@@]1(C)SC(=O)C(C(=O)CCC)=C1O [TLM38],No,–
C=C/C(C)=C/[C@@]1(C)SC(=O)C(C(=O)c2ccccc2C(=O)O)=C1O [TLM39],No,–
C=C/C(C)=C/[C@@]1(C)SC(=O)C=C1OCC(=O)NCCN=[N+]=[N-] [TLM40],No,–
C=C/C(C)=C/[C@@]1(C)SC(=O)C(C(=O)CCCCCCCCCCCCCCC)=C1O [TLM43],No,–
C=C/C(C)=C/[C@@]1(C)SC(=O)C(C(=O)CCCCc2ccc(-c3ccccc3)cc2)=C1O [TLM45],No,–
"C=C/C(C)=C/[C@@]1(C)SC(=O)C(C)=C1O [TLM, 5R-(+)-Thiolactomycin]",Yes,"Slow,"
